Where two headings read alike, the source gives them in different places.
Experiments:
[1] = pH of 0.1M solution of the acids tested (Table 1); type: physicochemical
[2] = Conversion of PNMDC to MITC as a function of pH; type: physicochemical; conditions: FIGS. 1 and 2; over three hours and over five minutes
Source text: In the decomposition of monoalkyldithiocarbamate salt, the rate at which alkyl isothiocyanate is formed can be determined by the pH of the solution. […] At lower pH levels, a competing reaction, particularly hydrolysis to form carbon disulfide and methylammonium ion, can occur, thus lowering the yield of MITC.
While good conversion can occur over a range of pH values, the results shown in FIGS. 1 and 2 indicate an optimum conversion occurring at about pH 3 (e.g., 2.5-3.5).
An HPLC method was developed to allow the reaction mixtures to be analyzed in real time. This procedure stopped the decomposition of PNMDC by converting any unreacted dithiocarbamate ion to a stable nickel salt:
This compound was then detected by its UV absorption at 365 nm. MITC is unaffected by the presence of the Ni^++ ion and is detected by its UV absorption at 230 nm.

CC(=O)O [Acetic Acid]
pH of 0.1M Solution [1]: 2.88

O=C(O)c1ccccc1 [Benzoic Acid]
pH of 0.1M Solution [1]: 2.61

O=C(O)CC(O)(CC(=O)O)C(=O)O [Citric Acid (1), Citric Acid]
pH of 0.1M Solution [1]: 2.06 | pH of 0.1M Solution ([1]; listed as Citric Acid (2)): 2.88

O=CO [Formic Acid]
pH of 0.1M Solution [1]: 2.39

CNC(=S)[S-].[K+] [PNMDC, potassium N-methyldithiocarbamate]
pH of optimum conversion of PNMDC to MITC [2]: ~3

Reference: US9078436B2 (priority 2012, dated 2015)
